Assay results from patent publication US7569554B2, “Synergistic treatment of cancer using immunomers in conjunction with therapeutic agents” (Idera Pharmaceuticals, Inc., priority 2003, dated 2009).

Columns and labels:
[1] = test system: BALB/c mouse spleen cells; assay: Cytokine secretion in BALB/c mouse spleen cell cultures (sandwich ELISA); assay type: cell-based; conditions: for Induction of IL-12: FIG. 7A; for Induction of IL-12 / Induction of IL-6: compared with Oligo 1; for Induction of IL-6: FIG. 7B
Description: (§1) The secretion of IL-12 and IL-6 in vertebrate cells, preferably BALB/c mouse spleen cells or human PBMC, was measured by sandwich ELISA. The required reagents including cytokine antibodies and cytokine standards were purchased form PharMingen, San Diego, Calif. ELISA plates (Costar) were incubated with appropriate antibodies at 5 μg/mL in PBSN buffer (PBS/0.05% sodium azide, pH 9.6) overnight at 4° C. and then blocked with PBS/i % BSA at 37° C. for 30 minutes. Cell culture supernatants and cytokine standards were appropriately diluted with PBS/10% FBS, added to the plates in triplicate, and incubated at 25° C. for 2 hours. Plates were overlaid with 1 μg/mL appropriate biotinylated antibody and incubated at 25° C. for 1.5 hours. The plates were then washed extensively with PBS-T Buffer (PBS/0.05% Tween 20) and further incubated at 25° C. for 1.5 hours after adding streptavidin conjugated peroxidase (Sigma, St. Louis, Mo.). The plates were developed with Sure Blue™ (Kirkegaard and Perry) chromogenic reagent and the reaction was terminated by adding Stop Solution (Kirkegaard and Perry). The color change was measured on a Ceres 900 HDI Spectrophotometer (Bio-Tek Instruments).
(§2) In all instances, the levels of IL-12 and IL-6 in the cell culture supernatants were calculated from the standard curve constructed under the same experimental conditions for IL-112 and IL-6, respectively. The levels of IL-10, IFN-gamma and TNF-α in the cell culture supernatants were calculated from the standard curve constructed under the same experimental conditions for IL-10, IFN-gamma and TNF-α, respectively.

[2] = test system: BALB/c mice; assay: In vivo serum cytokine induction; design: species or system mouse; conditions: 4 hrs
Description: To assess serum cytokine levels, BALB/c mice (n=5) were injected intraperitoneally (i.p), subcutaneously (s.c) or intramuscularly (i.m) with IMO compounds at 10 mg/kg (single dose). Sera was collected by retro-orbital bleeding at 4 hrs of IMO administration and determined IL-112 and IL-6 by sandwich ELISA. Cytokine antibodies and standards were purchased from PharMingen (San Diego, Calif.).
To evaluate the immunopharmacological effects in vivo, IMO compounds, CpG immunomers, and non-CpG oligos were administered to BALB/c mice i.p, s.c or i.m at a dose of 10 mg/kg and their serum was evaluated for IL-12 and IL-6 after 4 hrs.

[3] = test system: vertebrate cells, preferably BALB/c mouse spleen cells or human PBMC; assay: Immunostimulatory activity, IL-12/IL-6 secretion (Tables 9-12, cell culture not given); assay type: cell-based
Description: as §1, §2

[4] = test system: human PBMC; assay: Cytokine secretion in human PBMC cultures (sandwich ELISA); assay type: cell-based
Description: as §1
Human peripheral blood mononuclear cells (PBMCs) were isolated from peripheral blood of healthy volunteers by Ficoll-Paque density gradient centrifugation (Histopaque-1077, Sigma, St. Louis, Mo.). Briefly, heparinized blood was layered onto the Histopaque-1077 (equal volume) in a conical centrifuge and centrifuged at 400×g for 30 minutes at room temperature. The buffy coat, containing the mononuclear cells, was removed carefully and washed twice with isotonic phosphate buffered saline (PBS) by centrifugation at 250×g for 10 minutes. The resulting cell pellet was then resuspended in RPMI 1640 medium containing L-glutamine (MediaTech, Inc., Hemdon, Va.) and supplemented with 10% heat inactivated FCS and penicillin-streptomycin (100 U/ml). Cells were cultured in 24 well plates for different time periods at 1×10^6 cells/ml/well in the presence or absence of oligonucleotides. At the end of the incubation period, supernatants were harvested and stored frozen at −70° C. until assayed for various cytokines including IL-6 (BD Pharmingen, San Diego, Calif.), IL-10 (BD Pharmingen), IL-12 (BioSource International, Camarillo, Calif.), IFN-α (BioSource International) and -γ(BD Pharmingen) and TNF-α(BD Pharmingen) by sandwich ELISA.
as §2

[5] = Intraperitoneal (i.p), 10 mg/kg

Substance: 3′-TTCCAGCTCGCAAGAG-5′-5′-GAGAACGCTCGACCTT-3′ [Immunomer 3]
- Induction of IL-12 [1]: equal or weaker ability to produce immune stimulation compared with oligo 1
- Induction of IL-6 [1]: equal or weaker ability to induce immune stimulation compared with Oligo 1

Substance: 5-GAGAACGCTCGACCTT-3′-3′-TTCCAGCTCGCAAGAG-5′ [Immunomer 2]
- Induction of IL-12 [1]: stronger inducer of IL-12 than monomeric Oligo 1
- Induction of IL-6 [1]: stronger inducer of IL-6 than monomeric Oligo 1
- Elevation of IL-12, IL-6 and IL-10 ([1]; FIGS. 7A-C): elevates IL-12 and IL-6, but not IL-10 at lower concentrations than Oligonucleotides 1 or 3

Substance: 5′-CTATCTCACCTTCTCTGT-3′ (DNA, backbone not given here) [Non-CpG, reference compound]
- Serum IL-12 induction ([2]; 10 mg/kg i.p, s.c or i.m): insignificant
- Serum IL-6 induction ([2]; 10 mg/kg, all three routes of administration): insignificant
- IL-12 (serum) ([2]; Intramuscular (i.m), 10 mg/kg): 1.6 ± 0.07 ng/mL
- IL-6 (serum) [2, 5]: 0.7 ± 0.3 ng/mL
- IL-12 (serum) [2, 5]: 0.86 ± 0.5 ng/mL
- IL-12 (serum) ([2]; Subcutaneous (s.c), 10 mg/kg): 1.7 ± 0.04 ng/mL

Substance: 5′-CTATCTGACGTTCTCTGT-3′ (DNA, all phosphorothioate, methylation of C not given here) [Oligonucleotide 4]
- IL-12 ([3]; 0.3 μg/mL, Table 12): 257 pg/mL
- IL-6 ([3]; 1 μg/mL, Table 12): 635 pg/mL
- IL-6 ([3]; 3 μg/mL, Table 11): 1892 pg/mL
- IL-12 ([3]; 3 μg/mL, Table 11): 1176 pg/mL
- IL-12 ([1]; 0.3 μg/mL, Table 13): 225 pg/mL
- IL-6 ([1]; 1 μg/mL, Table 13): 1462 pg/mL

Substance: 5′-CTATCTGTCGTTCTCTGT-3′ (phosphorothioate, further chemistry not given here) [Oligo 25, 18mer (PS)]
- IL-6 ([3]; 3 μg/mL, Table 10): 339 pg/mL
- IL-12 ([3]; 3 μg/mL, Table 10): 379 pg/mL
- IFN-γ ([4]; donor 1 (D1)): 125 pg/mL
- IL-6 ([4]; donor 1 (D1)): 3077 pg/mL
- IL-10 ([4]; donor 1 (D1)): 37 pg/mL
- IL-12 ([4]; donor 1 (D1)): 184 pg/mL
- TNF-α ([4]; donor 1 (D1)): 537 pg/mL
- IFN-γ ([4]; donor 2 (D2)): 84 pg/mL
- IL-6 ([4]; donor 2 (D2)): 5369 pg/mL
- IL-10 ([4]; donor 2 (D2)): 88 pg/mL
- IL-12 ([4]; donor 2 (D2)): 332 pg/mL

Substance: 5′-CTCACTTTCGTTCTCTGT-3′ [Oligo 51]
- IL-6 ([3]; @ 3 μg/mL, Table 9): 348 pg/mL
- IL-12 ([3]; @ 3 μg/mL, Table 9): 404 pg/mL

Substance: Immunomer 57: SEQ ID NO: 32, 11mer (DNA TCTTTNGTTCT; listed as DNA, chemistry not fully specified)
- IL-6 ([3]; @ 3 μg/mL, Table 9): 365 pg/mL
- IL-12 ([3]; @ 3 μg/mL, Table 9): 591 pg/mL

Substance: Immunomer 58: SEQ ID NO: 33, 11mer (DNA TCTTTCNTTCT; listed as DNA, chemistry not fully specified)
- IL-6 ([3]; @ 3 μg/mL, Table 9): 283 pg/mL
- IL-12 ([3]; @ 3 μg/mL, Table 9): 303 pg/mL

Substance: Immunomer 61: SEQ ID NO: 34, 11mer (DNA TCTGTNGTTCT; listed as DNA, chemistry not fully specified)
- IL-6 ([3]; 3 μg/mL, Table 10): 470 pg/mL
- IL-12 ([3]; 3 μg/mL, Table 10): 1127 pg/mL

Substance: Immunomer 62: SEQ ID NO: 35, 11mer (DNA TCTGTCNTTCT; listed as DNA, chemistry not fully specified)
- IL-6 ([3]; 3 μg/mL, Table 10): 296 pg/mL
- IL-12 ([3]; 3 μg/mL, Table 10): 787 pg/mL

Substance: Immunomer 65: SEQ ID NO: 4, 18mer (DNA CTATCTGANGTTCTCTGT; listed as DNA, chemistry not fully specified)
- IL-6 ([3]; 3 μg/mL, Table 11): 192 pg/mL
- IL-12 ([3]; 3 μg/mL, Table 11): 443 pg/mL

Substance: Immunomer 66: SEQ ID NO: 5, 18mer (DNA CTATCTGACNTTCTCTGT; listed as DNA, chemistry not fully specified)
- IL-6 ([3]; 3 μg/mL, Table 11): 464 pg/mL
- IL-12 ([3]; 3 μg/mL, Table 11): 627 pg/mL

Substance: Immunomer 67: SEQ ID NO: 6, 14mer (DNA CTGANGTTCTCTGT; listed as DNA, chemistry not fully specified)
- IL-6 ([3]; 3 μg/mL, Table 11): 152 pg/mL
- IL-12 ([3]; 3 μg/mL, Table 11): 548 pg/mL

Substance: Immunomer 68: SEQ ID NO: 7, 14mer (DNA CTGACNTTCTCTGT; listed as DNA, chemistry not fully specified)
- IL-6 ([3]; 3 μg/mL, Table 11): 1020 pg/mL
- IL-12 ([3]; 3 μg/mL, Table 11): 1052 pg/mL

Substance: Immunomer 69: SEQ ID NO: 36, 11mer (DNA TCTGANGTTCT; listed as DNA, chemistry not fully specified)
- IL-6 ([3]; 3 μg/mL, Table 11): 2724 pg/mL
- IL-12 ([3]; 3 μg/mL, Table 11): 2050 pg/mL

Substance: Immunomer 70: SEQ ID NO: 24, 11mer (DNA TCTGACNTTCT; listed as DNA, chemistry not fully specified)
- IL-6 ([3]; 3 μg/mL, Table 11): 1741 pg/mL
- IL-12 ([3]; 3 μg/mL, Table 11): 1780 pg/mL

Substance: Immunomer 73: SEQ ID NO: 37, 10mer (DNA CTGACGTTCT; listed as DNA, chemistry not fully specified)
- IL-12 ([3]; 0.3 μg/mL, Table 12): 697 pg/mL
- IL-6 ([3]; 1 μg/mL, Table 12): 1454 pg/mL

Substance: Immunomer 74: SEQ ID NO: 37, 10mer (DNA CTGACGTTCT; DNA, backbone and methylation of C not given here; immunomer: two 10mer chains joined by non-nucleotidic linker, linker varies, further chemistry not fully specified)
- IL-12 ([3]; 0.3 μg/mL, Table 12): 1162 pg/mL
- IL-6 ([3]; 1 μg/mL, Table 12): 669 pg/mL

Substance: Immunomer 75: SEQ ID NO: 37, 10mer (DNA CTGACGTTCT; DNA, backbone and methylation of C not given here; immunomer: two 10mer chains joined by non-nucleotidic linker, linker varies, further chemistry not fully specified)
- IL-12 ([3]; 0.3 μg/mL, Table 12): 1074 pg/mL
- IL-6 ([3]; 1 μg/mL, Table 12): 1375 pg/mL

Substance: Immunomer 76: SEQ ID NO: 37, 10mer (DNA CTGACGTTCT; DNA, backbone and methylation of C not given here; immunomer: two 10mer chains joined by non-nucleotidic linker, linker varies, further chemistry not fully specified)
- IL-12 ([3]; 0.3 μg/mL, Table 12): 563 pg/mL
- IL-6 ([3]; 1 μg/mL, Table 12): 705 pg/mL

Substance: Immunomer 77: SEQ ID NO: 37, 10mer (DNA CTGACGTTCT; DNA, backbone and methylation of C not given here; immunomer: two 10mer chains joined by non-nucleotidic linker, linker varies, further chemistry not fully specified)
- IL-12 ([3]; 0.3 μg/mL, Table 12): 264 pg/mL
- IL-6 ([3]; 1 μg/mL, Table 12): 543 pg/mL

Substance: Immunomer 78: SEQ ID NO: 37, 10mer (DNA CTGACGTTCT; DNA, backbone and methylation of C not given here; immunomer: two 10mer chains joined by non-nucleotidic linker, linker varies, further chemistry not fully specified)
- IL-12 ([3]; 0.3 μg/mL, Table 12): 1750 pg/mL
- IL-6 ([3]; 1 μg/mL, Table 12): 2258 pg/mL

Substance: Immunomer 79: SEQ ID NO: 37, 10mer (DNA CTGACGTTCT; listed as DNA, chemistry not fully specified)
- IL-12 ([3]; 0.3 μg/mL, Table 12): 2255 pg/mL
- IL-6 ([3]; 1 μg/mL, Table 12): 2034 pg/mL

Substance: Immunomer 80: SEQ ID NO: 37, 10mer (DNA CTGACGTTCT; listed as DNA, chemistry not fully specified)
- IL-12 ([3]; 0.3 μg/mL, Table 12): 1493 pg/mL
- IL-6 ([3]; 1 μg/mL, Table 12): 1197 pg/mL

Substance: Immunomer 81: SEQ ID NO: 37, 10mer (DNA CTGACGTTCT; listed as DNA, chemistry not fully specified)
- IL-12 ([3]; 0.3 μg/mL, Table 12): 3625 pg/mL
- IL-6 ([3]; 1 μg/mL, Table 12): 2642 pg/mL

Substance: Immunomer 82: SEQ ID NO: 37, 10mer (DNA CTGACGTTCT; listed as DNA, chemistry not fully specified)
- IL-12 ([3]; 0.3 μg/mL, Table 12): 4248 pg/mL
- IL-6 ([3]; 1 μg/mL, Table 12): 2988 pg/mL

Substance: Immunomer 83: SEQ ID NO: 37, 10mer (DNA CTGACGTTCT; listed as DNA, chemistry not fully specified)
- IL-12 ([3]; 0.3 μg/mL, Table 12): 1241 pg/mL
- IL-6 ([3]; 1 μg/mL, Table 12): 1964 pg/mL
